Earlier results in patent US11253518B2, “Methods and compositions for the treatment of hair loss” (Aneira Pharma, Inc., priority 2019, dated 2022).
In brackets after ≈: the same amount, converted by molar mass. Like-named read-outs stand apart in the source and are kept apart here.

Legend:
[1] = not given; remark: listed apart in the source
human FP receptors [2] = target: T1, human FP receptors (Homo sapiens, UniProt P43088)
human FP receptors [3] = target: T1, human FP receptors; remark: listed apart in the source
hair growth = settings: for hair growth: McCarey 2004
[4] = believed
[5] = system: elevated intraocular pressure; settings: glaucomatous monkeys; Gagliuso 2004
[6] = system: elevated intraocular pressure; settings: some human glaucoma patients; Gandolfi 2003
[7] = system: production of dihydrotestosterone (DHT); settings: oral; including prostate gland and scalp

T1 sequence (P43088 whole entry): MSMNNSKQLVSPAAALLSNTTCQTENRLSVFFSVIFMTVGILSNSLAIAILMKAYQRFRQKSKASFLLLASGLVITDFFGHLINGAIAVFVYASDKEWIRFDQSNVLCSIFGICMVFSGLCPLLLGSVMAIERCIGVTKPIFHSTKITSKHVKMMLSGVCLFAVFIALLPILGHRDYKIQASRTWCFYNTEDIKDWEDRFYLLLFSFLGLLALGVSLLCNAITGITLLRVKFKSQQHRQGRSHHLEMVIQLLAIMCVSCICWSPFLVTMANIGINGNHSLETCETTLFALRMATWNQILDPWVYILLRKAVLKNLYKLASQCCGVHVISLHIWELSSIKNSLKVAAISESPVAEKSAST

In the case of `CC(C)OC(=O)CCC/C=C\C[C@@H]1[C@@H](CC[C@@H](O)CCc2ccccc2)[C@H](O)C[C@@H]1O` [latanoprost, isopropyl ester of 17-phenyl-13,14-dihydro prostaglandin F2a], the solubility (1:4 solution of ethanol:PBS (pH 7.2)) is given as 400 µg/mL (≈ 925 µM), the solubility (PBS (pH 7.2)) is given as “approximately 50 μg/mL” and the solubility (propylene glycol, methanol, ethanol and 2-propanol) is given as ≥ 5%. For the same molecule, the “stable for” value ([1]; acidic or basic aqueous solutions) was “no more than 48 hours” and the “stable for” value ([1]; neutral aqueous solutions, room temperature) was “up to one month”.

In the case of `O=C(O)CCC/C=C\C[C@@H]1[C@@H](CC[C@@H](O)CCc2ccccc2)[C@H](O)C[C@@H]1O` [Latanoprost free acid], the “potency relative to PGF2α” value (human FP receptors [2]) is listed as “twice the potency”, the EC50 (human FP receptors [2]; FP receptor agonist) is listed as 3.6 nM and the “potency as FP receptor ligand relative to latanoprost” value (human FP receptors [3]) is listed as “two-hundred times more potent”.

In the case of `CCCCCCCC(=O)CC[C@@H]1[C@@H](C/C=C\CCCC(=O)O)[C@@H](O)C[C@H]1O` [uenoprostone free acid], the hair growth (hair growth) is listed as “no hair growth”.

For `CCNC(=O)CCC/C=C\C[C@@H]1[C@@H](/C=C/[C@@H](O)CCc2ccccc2)[C@H](O)C[C@@H]1O` [bimatoprost, Bimatoprost], the “amount converted into bimatoprost free acid” value [4] is listed as “under 5%”, the “effect on intraocular pressure together with latanoprost” value [5] is listed as “additive” and the “reduction of elevated intraocular pressure in latanoprost non-responders” value [6] is listed as “responsive”.

In the case of `CCCCCCCC(=O)CC[C@@H]1[C@@H](C/C=C\CCCC(=O)OC(C)C)[C@@H](O)C[C@H]1O` [Uenoprostone isopropyl ester, Unoprostone isopropyl ester], the “incidence of iris pigmentation and eyelash changes” value (hair growth; 0.15%, two randomized clinical trials) is given as “Low incidence” and the hair growth (hair growth) is given as “no hair growth”.

For `CC(C)(C)NC(=O)[C@H]1CC[C@H]2[C@@H]3CC[C@H]4NC(=O)C=C[C@]4(C)[C@H]3CC[C@]12C` [finasteride, (1S,3aS,3bS,5aR,9aR,9bS,11aS)-N-tert-butyl-9a,11a-dimethyl-7-oxo-1,2,3,3a,3b,4,5,5a,6,9b,10,11-dodecahydroindeno[5,4-f]quinoline-1-carboxamide], the “decrease of production of dihydrotestosterone (DHT)” value [7] is given as “about 70%”.
